Tested on: Diabrotic undecimpunctata howardi, 3rd instar southern corn rootworm
Experiment: Southern corn rootworm soil test
Type: in vivo
Parameters: key: 0: no effect; 10-25% kill; 26-35% kill; 36-45% kill; 46-55% kill; 56-65% kill; 66-75% kill; 76-85% kill; 86-99% kill; 9: 100% kill
Conditions: 50 (ppm as headed), mortality rating after 6 days
How it was run: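 Soil test with ten 3rd instar larvae per jar, mortality read after 6 days and missing larvae counted as dead; scores on a rating scale. Doses were 1.25 and 0.25 mg a.i. per jar, corresponding to roughly 50 and 10 kg/ha, loaded on talc from acetone and mixed into moist soil with millet seed as food.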

Compound | SOUTHERN CORN ROOTWORM
N=C(N)SCn1c(-c2ccc(Cl)c(Cl)c2)c(Br)c(C(F)(F)F)c1C(F)(F)F [Example 18] | 0
N#Cc1c(Br)c(C(F)(F)F)n(CSC2=NCCS2)c1-c1ccc(Cl)cc1 [Example 16] | 9 (100% kill)
CN=C(NC)SCn1c(Cl)c(C#N)c(Cl)c1-c1ccc(Cl)c(Cl)c1 [Example 19] | 0
CCOC(=S)SCn1c(Cl)c(C#N)c(Cl)c1-c1ccc(Cl)c(Cl)c1 [Example 37] | 0
N#Cc1c(Cl)c(C(F)(F)F)n(CSC2=NCCN2)c1-c1ccc(Cl)cc1 [Example 4] | 0
N#Cc1c(Br)c(Br)n(CSC2=NCCCN2)c1Br [Example 13] | 0
CCOC(=S)SCn1c(Cl)c(Cl)c(C#N)c1-c1ccc(Cl)c(Cl)c1 [Example 28] | 0
CC1(C)CN=C(SCn2c(-c3ccc(Cl)cc3)c(C#N)c(Br)c2C(F)(F)F)NC1 [Example 10] | 0
CCOC(=S)SCn1c(-c2ccc(Cl)c(Cl)c2)c(Br)c(C(F)(F)F)c1C(F)(F)F [Example 35] | 0
CCOC(=S)SCn1c(-c2ccc(Cl)cc2)c(C#N)c(Br)c1C(F)(F)F [Example 29] | 9 (100% kill)
CN=C(NC)SCn1c(Cl)c(Cl)c(C#N)c1-c1ccc(Cl)c(Cl)c1 [Example 15] | 0

Tested on: Heliothis virescens, 3rd instar tobacco budworm
Experiment: Tobacco budworm 3rd instar test, dipped cotton cotyledons
Type: in vivo
Parameters: key: 0: no effect; 10-25% kill; 26-35% kill; 36-45% kill; 46-55% kill; 56-65% kill; 66-75% kill; 76-85% kill; 86-99% kill; 9: 100% kill
Conditions: 10 ppm; mortality rating after 3 days
How it was run: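 Rating-scale scores of mortality and reduced feeding, taken 3 days after single third-instar larvae were caged on dried cotton cotyledon quarters. Cotyledons were pre-dipped in test solutions diluted with water from a 10,000 ppm stock in 35% acetone.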

Compound | TOBACCO BUDWORM 3rd Instar
N=C(N)SCn1c(-c2ccc(Cl)c(Cl)c2)c(Br)c(C(F)(F)F)c1C(F)(F)F [Example 18] | 0
N#Cc1c(Br)c(C(F)(F)F)n(CSC2=NCCS2)c1-c1ccc(Cl)cc1 [Example 16] | 9 (100% kill)
CN=C(NC)SCn1c(Cl)c(C#N)c(Cl)c1-c1ccc(Cl)c(Cl)c1 [Example 19] | 0
CCOC(=S)SCn1c(Cl)c(C#N)c(Cl)c1-c1ccc(Cl)c(Cl)c1 [Example 37] | 0
N#Cc1c(Cl)c(C(F)(F)F)n(CSC2=NCCN2)c1-c1ccc(Cl)cc1 [Example 4] | 9 (100% kill)
CCOC(=S)SCn1c(Cl)c(Cl)c(C#N)c1-c1ccc(Cl)c(Cl)c1 [Example 28] | 0
CC1(C)CN=C(SCn2c(-c3ccc(Cl)cc3)c(C#N)c(Br)c2C(F)(F)F)NC1 [Example 10] | 0
CN=C(NC)SCn1c(Cl)c(Cl)c(C#N)c1-c1ccc(Cl)c(Cl)c1 [Example 15] | 0

Same assay, conditions: 100 ppm; mortality rating after 3 days

Compound | TOBACCO BUDWORM 3rd Instar
N=C(N)SCn1c(-c2ccc(Cl)c(Cl)c2)c(Br)c(C(F)(F)F)c1C(F)(F)F [Example 18] | 9 (100% kill)
N#Cc1c(Br)c(C(F)(F)F)n(CSC2=NCCS2)c1-c1ccc(Cl)cc1 [Example 16] | 9 (100% kill)
CN=C(NC)SCn1c(Cl)c(C#N)c(Cl)c1-c1ccc(Cl)c(Cl)c1 [Example 19] | 9 (100% kill)
CCOC(=S)SCn1c(Cl)c(C#N)c(Cl)c1-c1ccc(Cl)c(Cl)c1 [Example 37] | 9 (100% kill)
N#Cc1c(Cl)c(C(F)(F)F)n(CSC2=NCCN2)c1-c1ccc(Cl)cc1 [Example 4] | 9 (100% kill)

Same assay, conditions: 1000 ppm; mortality rating after 3 days

Compound | TOBACCO BUDWORM 3rd Instar
N=C(N)SCn1c(-c2ccc(Cl)c(Cl)c2)c(Br)c(C(F)(F)F)c1C(F)(F)F [Example 18] | 9 (100% kill)
N#Cc1c(Br)c(C(F)(F)F)n(CSC2=NCCS2)c1-c1ccc(Cl)cc1 [Example 16] | 9 (100% kill)
CN=C(NC)SCn1c(Cl)c(C#N)c(Cl)c1-c1ccc(Cl)c(Cl)c1 [Example 19] | 9 (100% kill)
CCOC(=S)SCn1c(Cl)c(C#N)c(Cl)c1-c1ccc(Cl)c(Cl)c1 [Example 37] | 9 (100% kill)
N#Cc1c(Cl)c(C(F)(F)F)n(CSC2=NCCN2)c1-c1ccc(Cl)cc1 [Example 4] | 9 (100% kill)
N#Cc1c(Br)c(Br)n(CSC2=NCCCN2)c1Br [Example 13] | 0

Tested on: Spodoptera eridania, 3rd instar larvae, southern armyworm
Experiment: Southern armyworm 7-day residual test
Type: in vivo
Parameters: key: 0: no effect; 10-25% kill; 26-35% kill; 36-45% kill; 46-55% kill; 56-65% kill; 66-75% kill; 76-85% kill; 86-99% kill; 9: 100% kill
Conditions: R designates Residual: 7-day residual foliage; rating at 3 days; concentration not given
How it was run: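 Third-instar southern armyworm larvae were exposed to lima bean foliage that had been treated, then held 7 days under greenhouse lamps simulating bright sun for 14 h per day. Treatment solutions were diluted in water from a 10,000 ppm stock in 35% acetone. Results are scale ratings.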

Compound | ARMYWORM Day 3 R
N=C(N)SCn1c(-c2ccc(Cl)c(Cl)c2)c(Br)c(C(F)(F)F)c1C(F)(F)F [Example 18] | 9 (100% kill)
N#Cc1c(Br)c(C(F)(F)F)n(CSC2=NCCS2)c1-c1ccc(Cl)cc1 [Example 16] | 9 (100% kill)
CN=C(NC)SCn1c(Cl)c(C#N)c(Cl)c1-c1ccc(Cl)c(Cl)c1 [Example 19] | 9 (100% kill)
CCOC(=S)SCn1c(Cl)c(C#N)c(Cl)c1-c1ccc(Cl)c(Cl)c1 [Example 37] | 9 (100% kill)
N#Cc1c(Cl)c(C(F)(F)F)n(CSC2=NCCN2)c1-c1ccc(Cl)cc1 [Example 4] | 9 (100% kill)
N#Cc1c(Br)c(Br)n(CSC2=NCCCN2)c1Br [Example 13] | 0
CCOC(=S)SCn1c(Cl)c(Cl)c(C#N)c1-c1ccc(Cl)c(Cl)c1 [Example 28] | 9 (100% kill)
CC1(C)CN=C(SCn2c(-c3ccc(Cl)cc3)c(C#N)c(Br)c2C(F)(F)F)NC1 [Example 10] | 9 (100% kill)
CCOC(=S)SCn1c(-c2ccc(Cl)c(Cl)c2)c(Br)c(C(F)(F)F)c1C(F)(F)F [Example 35] | 9 (100% kill)
CCOC(=S)SCn1c(-c2ccc(Cl)cc2)c(C#N)c(Br)c1C(F)(F)F [Example 29] | 9 (100% kill)
CN=C(NC)SCn1c(Cl)c(Cl)c(C#N)c1-c1ccc(Cl)c(Cl)c1 [Example 15] | 9 (100% kill)

Same assay, conditions: R designates Residual: 7-day residual foliage; rating at 5 days; concentration not given

Compound | ARMYWORM Day 5 R
N=C(N)SCn1c(-c2ccc(Cl)c(Cl)c2)c(Br)c(C(F)(F)F)c1C(F)(F)F [Example 18] | 9 (100% kill)
N#Cc1c(Br)c(C(F)(F)F)n(CSC2=NCCS2)c1-c1ccc(Cl)cc1 [Example 16] | 9 (100% kill)
CN=C(NC)SCn1c(Cl)c(C#N)c(Cl)c1-c1ccc(Cl)c(Cl)c1 [Example 19] | 9 (100% kill)
CCOC(=S)SCn1c(Cl)c(C#N)c(Cl)c1-c1ccc(Cl)c(Cl)c1 [Example 37] | 9 (100% kill)
N#Cc1c(Cl)c(C(F)(F)F)n(CSC2=NCCN2)c1-c1ccc(Cl)cc1 [Example 4] | 9 (100% kill)
N#Cc1c(Br)c(Br)n(CSC2=NCCCN2)c1Br [Example 13] | 7 (76-85% kill)
CCOC(=S)SCn1c(Cl)c(Cl)c(C#N)c1-c1ccc(Cl)c(Cl)c1 [Example 28] | 9 (100% kill)
CC1(C)CN=C(SCn2c(-c3ccc(Cl)cc3)c(C#N)c(Br)c2C(F)(F)F)NC1 [Example 10] | 9 (100% kill)
CCOC(=S)SCn1c(-c2ccc(Cl)c(Cl)c2)c(Br)c(C(F)(F)F)c1C(F)(F)F [Example 35] | 9 (100% kill)
CCOC(=S)SCn1c(-c2ccc(Cl)cc2)c(C#N)c(Br)c1C(F)(F)F [Example 29] | 9 (100% kill)
CN=C(NC)SCn1c(Cl)c(Cl)c(C#N)c1-c1ccc(Cl)c(Cl)c1 [Example 15] | 9 (100% kill)

Tested on: Heliothis virescens, egg, tobacco budworm
Experiment: Tobacco budworm egg test, dipped cotton leaf and eggs
Type: in vivo
Parameters: key: 0: no effect; 10-25% kill; 26-35% kill; 36-45% kill; 46-55% kill; 56-65% kill; 66-75% kill; 76-85% kill; 86-99% kill; 9: 100% kill
Conditions: 100 ppm; mortality rating after 3 days
How it was run: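 Scoring is by mortality counts after 3 days, graded on a rating scale. Tobacco budworm eggs (6-30 h old) on cheesecloth and a young cotton leaf were each dipped about 3 s in the test suspension. Suspensions were made from a 10,000 ppm stock in 35% acetone/water with further water dilutions.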

Compound | TOBACCO BUDWORM Egg
N#Cc1c(Br)c(C(F)(F)F)n(CSC2=NCCS2)c1-c1ccc(Cl)cc1 [Example 16] | 0
N#Cc1c(Cl)c(C(F)(F)F)n(CSC2=NCCN2)c1-c1ccc(Cl)cc1 [Example 4] | 9 (100% kill)
CCOC(=S)SCn1c(Cl)c(Cl)c(C#N)c1-c1ccc(Cl)c(Cl)c1 [Example 28] | 0
CC1(C)CN=C(SCn2c(-c3ccc(Cl)cc3)c(C#N)c(Br)c2C(F)(F)F)NC1 [Example 10] | 0
CCOC(=S)SCn1c(-c2ccc(Cl)cc2)c(C#N)c(Br)c1C(F)(F)F [Example 29] | 0
CN=C(NC)SCn1c(Cl)c(Cl)c(C#N)c1-c1ccc(Cl)c(Cl)c1 [Example 15] | 0

Same assay, conditions: 1000 ppm; mortality rating after 3 days

Compound | TOBACCO BUDWORM Egg
N=C(N)SCn1c(-c2ccc(Cl)c(Cl)c2)c(Br)c(C(F)(F)F)c1C(F)(F)F [Example 18] | 0
N#Cc1c(Br)c(C(F)(F)F)n(CSC2=NCCS2)c1-c1ccc(Cl)cc1 [Example 16] | 0
CN=C(NC)SCn1c(Cl)c(C#N)c(Cl)c1-c1ccc(Cl)c(Cl)c1 [Example 19] | 0
CCOC(=S)SCn1c(Cl)c(C#N)c(Cl)c1-c1ccc(Cl)c(Cl)c1 [Example 37] | 0
N#Cc1c(Cl)c(C(F)(F)F)n(CSC2=NCCN2)c1-c1ccc(Cl)cc1 [Example 4] | 9 (100% kill)
N#Cc1c(Br)c(Br)n(CSC2=NCCCN2)c1Br [Example 13] | 0
CCOC(=S)SCn1c(Cl)c(Cl)c(C#N)c1-c1ccc(Cl)c(Cl)c1 [Example 28] | 0
CC1(C)CN=C(SCn2c(-c3ccc(Cl)cc3)c(C#N)c(Br)c2C(F)(F)F)NC1 [Example 10] | 0
CCOC(=S)SCn1c(-c2ccc(Cl)c(Cl)c2)c(Br)c(C(F)(F)F)c1C(F)(F)F [Example 35] | 0
CCOC(=S)SCn1c(-c2ccc(Cl)cc2)c(C#N)c(Br)c1C(F)(F)F [Example 29] | 4 (46-55% kill)
CN=C(NC)SCn1c(Cl)c(Cl)c(C#N)c1-c1ccc(Cl)c(Cl)c1 [Example 15] | 0
